Assay in all cases: NCI tumour cell line growth inhibition, 48 h
Experiment [1] deals with U-251.
Experiment [2] has as its system UO-31.
Experiment [3] has as its system SK-MEL-2.
Experiment [4] deals with SNB-19.
Experiment [5] has as its system TK-10.
Experiment [6] concerns NCI-H226.
For experiment [7], the system named is HCT-15.
Experiment [8] has as its system SF-295.
In experiment [9] the test system is NCI-H522.
The subject of experiment [10] is MDA-N.
Experiment [11] has as its system NCI-H23.
For experiment [12], the system named is SK-OV-3.
Experiment [13] relates to A549.
Experiment [14] relates to MCF7.
For experiment [15], the system named is K562.
Experiment [16] concerns HCC 2998.
Experiment [17] relates to CAKI-1.
For experiment [18], the system named is NCI/ADR-RES.
Experiment [19] relates to CCRF-CEM.
For experiment [20], the system named is SF-539.

The results in this text go back to ChEMBL document CHEMBL1201862, “PubChem BioAssay data set” (2004).

Values joined by “and” are separate entries in the source; they are usually repeats but may differ in a detail not shown here. Identical values can stand only once.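 The compound was tested at five concentrations on cells cultured in 96-well plates, with a 48-hour exposure period. GI50 is the concentration that inhibits growth by half.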 Active and inactive are the calls of the source. Cut-off read from the data, not from the text of the source: active = GI50 up to about 1.1 µM and inactive = higher. Some results are limits rather than exact numbers.

As to `NCCC(=O)N[C@H](Cc1cc(O)c(O)c(SCC(NC(=O)CC[C@H](N)C(=O)O)C(=O)NCC(=O)O)c1)C(=O)O` (stereo partly specified), the GI50 in [1], in experiment [2], in experiment [3], in experiment [4], in [5] and in experiment [6] was > 50 µM (inactive) throughout. The GI50 in [7] is above 50 µM; in [8] it was > 50 µM (inactive); in experiment [9], > 50 µM (inactive); in [10], > 50 µM (inactive); in experiment [11] it was > 50 µM (inactive); in experiment [12] it was > 50 µM (inactive). The GI50 in [13], in experiment [14], in experiment [15], in experiment [16], in [17] and in [18] was > 50 µM (inactive) throughout.

Regarding `COc1ccccc1OCC(=N/NC(=O)c1ccncc1)/N=C/c1cccnc1`, the GI50 was > 100 µM (inactive) in experiment [1]; > 100 µM (inactive) in experiment [3]; > 100 µM (inactive) in [4]; > 100 µM (inactive) in [5]; > 100 µM (inactive) in experiment [6]; above 100 µM in experiment [7]. Further, the GI50 in [8], in experiment [9], in experiment [10], in [11], in experiment [12] and in experiment [19] was > 100 µM (inactive) in each case. The GI50 in experiment [13], in experiment [14], in [15], in experiment [16], in [20] and in experiment [17] was > 100 µM (inactive) each time. Also, the GI50 in experiment [18] is > 100 µM (inactive).

On to `Cc1ccc(/C=C2/N/C(=N\N=C/C(O)C(O)C(O)C(O)CO)NC2=O)cc1` (stereo unspecified), for which the GI50 in [1], in [2], in [3], in experiment [4], in experiment [5] and in [6] was > 100 µM (inactive) in each case. The GI50 in experiment [7] is > 100 µM and 69.8 µM; in experiment [8], > 100 µM (inactive); in [9], > 100 µM (inactive); in [10], > 100 µM (inactive); in experiment [11], > 100 µM (inactive); in experiment [12] it was > 100 µM (inactive). Further, the GI50 in experiment [19] is 95.3 µM (inactive); in experiment [13], > 100 µM (inactive); in experiment [14] it was > 100 µM (inactive); in [16], > 100 µM (inactive); in experiment [20] it was > 100 µM (inactive); in [17], > 100 µM (inactive). Also, in experiment [18], the GI50 is > 100 µM (inactive).

For `FC(F)(Sc1ncc[nH]1)c1nc2ccccc2o1`, the GI50 is > 100 µM (inactive) in experiment [1]; > 100 µM (inactive) in experiment [2]; > 100 µM (inactive) in [3]; > 100 µM (inactive) in [5]; > 100 µM (inactive) in [6]; above 100 µM in experiment [7]. In addition, the GI50 in [8], in [9], in [10], in experiment [11], in [12] and in [19] was > 100 µM (inactive) throughout. Also, the GI50 in experiment [13], in experiment [14], in [15], in [16], in experiment [20] and in experiment [17] was > 100 µM (inactive) throughout. Besides, in experiment [18], the GI50 is > 100 µM (inactive).

Consider `NNC(=O)CSc1nnc(CCCCCCCCc2nnc(SCC(=O)NN)o2)o1`, for which the GI50 in [1], in [2], in experiment [3], in [4], in experiment [5] and in experiment [6] was > 100 µM (inactive) each time. Also, the GI50 in experiment [7] is above 100 µM; in [8], > 100 µM (inactive); in [9], > 100 µM (inactive); in [10], > 100 µM (inactive); in experiment [11], > 100 µM (inactive); in experiment [12] it was > 100 µM (inactive). Also, the GI50 in experiment [19], in experiment [13], in experiment [14], in experiment [15], in experiment [16] and in experiment [17] was > 100 µM (inactive) throughout. For the same compound, the GI50 in experiment [18] was > 100 µM (inactive).

As to `BrCc1ccc(CBr)c2c1-c1c(CBr)ccc3ccc(CBr)c-2c13`, the GI50 in experiment [1] is 49.8 µM (inactive); in experiment [2], > 100 µM (inactive); in experiment [3], > 100 µM (inactive); in [4], > 100 µM (inactive); in [5], > 100 µM (inactive); in [6] it was > 100 µM (inactive). For the same compound, the GI50 is above 100 µM in experiment [7]; > 100 µM (inactive) in experiment [8]; > 100 µM (inactive) in experiment [9]; > 100 µM (inactive) in [10]; > 100 µM (inactive) in [12]; > 100 µM (inactive) in experiment [13]. Besides, the GI50 was > 100 µM (inactive) in experiment [14]; 99.1 µM (inactive) in experiment [15]; > 100 µM (inactive) in experiment [16]; 56.9 µM (inactive) in experiment [20]; > 100 µM (inactive) in [18].

In the case of `CCN(CC)CCn1ncc2c3c(=O)c4cccnc4n(CCN(CC)CC)c3ccc21`, the GI50 in [1] was > 10 µM (inactive); in [3] it was > 10 µM (inactive); in [4] it was > 10 µM (inactive); in experiment [5], > 10 µM (inactive); in [6], > 10 µM (inactive); in experiment [7], 5.25 µM. Also, the GI50 in experiment [8] was 7.45 µM (inactive); in experiment [9] it was > 10 µM (inactive); in [10], > 10 µM (inactive); in experiment [11], > 10 µM (inactive); in [12], > 10 µM (inactive); in experiment [19], 4.98 µM (inactive). The GI50 in experiment [13] is > 10 µM (inactive); in experiment [14], 3.22 µM (inactive); in experiment [15], > 10 µM (inactive); in [16], > 10 µM (inactive); in experiment [20] it was 9.27 µM (inactive); in [17] it was > 10 µM (inactive). Further, in experiment [18], the GI50 is 9.18 µM (inactive).

Consider `Cc1ccc2c(c1)C(=O)/C(=C1/CCc3ccc(C)cc31)C2`, for which the GI50 in experiment [1] was > 100 µM (inactive); in experiment [2], > 100 µM (inactive); in [3] it was > 100 µM (inactive); in experiment [4], 87.5 µM (inactive); in experiment [5] it was > 100 µM (inactive); in experiment [6] it was > 100 µM (inactive). Also, the GI50 in experiment [7] is above 100 µM; in experiment [8], > 100 µM (inactive); in [9] it was 32.4 µM (inactive); in experiment [10], > 100 µM (inactive); in experiment [11], > 100 µM (inactive); in [12] it was > 100 µM (inactive). The GI50 was 86.5 µM (inactive) in experiment [19]; > 100 µM (inactive) in experiment [13]; > 100 µM (inactive) in experiment [14]; 76 µM (inactive) in experiment [15]; > 100 µM (inactive) in experiment [16]; 54.7 µM (inactive) in experiment [20]. For the same compound, the GI50 in [18] was > 100 µM (inactive).

Turning to `c1ccc(C(=NNc2cnc3ccccc3n2)c2ccccn2)cc1`, the GI50 in experiment [1] was 2.31 µM (inactive); in experiment [2], 0.76 µM (active); in experiment [3] it was 9.77 µM (inactive); in experiment [4], 6.43 µM (inactive); in [6] it was 4.9 µM (inactive); in experiment [7], 0.424 µM. For the same compound, the GI50 in experiment [8] was 2.93 µM (inactive); in experiment [9], 0.419 µM (active); in experiment [10], 9.64 µM (inactive); in [11], 2.61 µM (inactive); in [12], 3.78 µM (inactive); in [19] it was 0.208 µM (active). In addition, the GI50 in [13] is 3.15 µM (inactive); in experiment [14], 0.371 µM (active); in [15] it was 1.2 µM (inactive); in [16], 4.41 µM (inactive); in experiment [20] it was 1.58 µM (inactive); in [17] it was 0.382 µM (active). The GI50 in experiment [18] is 0.494 µM (active).

Regarding `CC(C(=O)c1ccncc1)c1ccccn1` (stereo unspecified), the GI50 in [1], in [2], in [3], in [4], in experiment [5] and in [6] was > 100 µM (inactive) in each case. The GI50 in experiment [7] was above 100 µM; in [8], > 100 µM (inactive); in experiment [9] it was > 100 µM (inactive); in [10] it was > 100 µM (inactive); in experiment [11], > 100 µM (inactive); in experiment [12], > 100 µM (inactive). In addition, the GI50 in experiment [19], in experiment [13], in [14], in experiment [15], in experiment [16] and in experiment [17] was > 100 µM (inactive) each time. Moreover, in experiment [18], the GI50 was > 100 µM (inactive).

With `NCCNCCCCCCNC(=O)c1cccc2cc3ccccc3nc12`, the GI50 in experiment [1] is 1.64 µM (inactive); in experiment [2], 5.66 µM (inactive); in [3], 2.87 µM (inactive); in experiment [4], 2.67 µM (inactive); in [5], 8.51 µM (inactive); in [6], 1.95 µM (inactive). Also, the GI50 was 12.6 µM in experiment [7]; 3.6 µM (inactive) in experiment [8]; 1.42 µM (inactive) in experiment [9]; 2.7 µM (inactive) in experiment [10]; 2.07 µM (inactive) in experiment [11]; 1.03 µM (active) in experiment [19]. Besides, the GI50 in experiment [13] was 1.7 µM (inactive); in experiment [14], 1.1 µM (active); in experiment [15], 2.06 µM (inactive); in experiment [16] it was 2.14 µM (inactive); in [20], 1.93 µM (inactive); in [17] it was 4.78 µM (inactive). Further, the GI50 in [18] is 17.9 µM (inactive).
